Measured values published in ChEMBL document CHEMBL6121011, “An oxidation-reduction-triggered thiamine disulfide-based prodrug of 10-hydroxycamptothecin for selective tumor cell locking and therapeutic delivery” (Eur J Med Chem, 2025).
The source made the active and inactive calls. The calls are words filed in the database; no cut-off is given here.

Key:
[1] = Antiproliferative activity against human MCF-10A cells incubated for 48 hrs by CCK8 assay; format: toxicity, cell-based
[2] = system: 4T1; experiment: Antitumor activity against mouse 4T1 cells implanted in BALB/c mouse assessed as increase in pyknotic cells with highly condensed nuclei administered intravenously once every two days at equivalent dose of 10 mg/kg of HCPT for 14 days by H and E staining based analysis; format: functional, organism-based; conditions: route iv, time 14.0 day
[3] = Prodrug stability in 10 mM H2O2 assessed as compound remaining at 18 uM measured after 12 hrs by RP-HPLC analysis; format: ADME
[4] = system: HepG2; experiment: Antiproliferative activity against human HepG2 cells incubated for 48 hrs by CCK8 assay; format: functional, cell-based; conditions: HepG2, 48 h
[5] = system: 4T1; experiment: Induction of mitochondrial damage in mouse 4T1 cells assessed as increase in green fluorescence at 0.5 uM incubated for 24 hrs by JC-1 staining based CLSM analysis; format: functional, cell-based
[6] = system: 4T1; experiment: Antitumor activity against mouse 4T1 cells implanted in BALB/c mouse assessed as tumor growth inhibition administered intravenously once every two days at equivalent dose of 10 mg/kg of HCPT for 14 days; format: functional, organism-based; conditions: route iv, time 14.0 day
[7] = Toxicity in BALB/c mouse implanted with mouse 4T1 cells assessed as body weight loss administered intravenously once every two days at equivalent dose of 10 mg/kg of HCPT for 14 days; format: organism-based; conditions: in vivo, iv, 336 h, time 14 day
[8] = Toxicity in BALB/c mouse implanted with mouse 4T1 cells assessed as damage in major organ tissues administered intravenously once every two days at equivalent dose of 10 mg/kg of HCPT for 14 days; format: organism-based; conditions: in vivo, iv, 336 h, time 14 day
[9] = AUC in Sprague-Dawley rat assessed as fold change at 24 mg/kg, iv by HPLC-MS analysis relative to HCPT; format: ADME, organism-based; conditions: in vivo
[10] = system: 4T1; experiment: Antitumor activity against mouse 4T1 cells implanted in BALB/c mouse assessed as reduction in tumor size administered intravenously once every two days at equivalent dose of 10 mg/kg of HCPT for 14 days; format: functional, organism-based; conditions: route iv, time 14.0 day
[11] = system: PC-3; experiment: Antiproliferative activity against human PC-3 cells incubated for 48 hrs by CCK8 assay; format: functional, cell-based; conditions: PC-3, 48 h
[12] = Prodrug stability in 5 uM GSH assessed as compound remaining at 18 uM measured after 24 hrs by RP-HPLC analysis; format: ADME
[13] = AUC in Sprague-Dawley rat at 24 mg/kg, iv by HPLC-MS analysis; format: ADME, organism-based; conditions: in vivo
[14] = system: U-87 MG; experiment: Antiproliferative activity against human U-87 MG cells incubated for 48 hrs by CCK8 assay; format: functional, cell-based, U-87MG ATCC
[15] = system: MDA-MB-231; experiment: Antiproliferative activity against human MDA-MB-231 cells incubated for 48 hrs by CCK8 assay; format: functional, cell-based; conditions: MDA-MB-231, 48 h
[16] = Prodrug stability in 5 mM GSH assessed as compound remaining at 18 uM measured after 12 hrs by RP-HPLC analysis; format: ADME
[17] = Cmax in Sprague-Dawley rat at 24 mg/kg, iv by HPLC-MS analysis; format: ADME, organism-based; conditions: in vivo
[18] = system: 4T1; experiment: Antitumor activity against mouse 4T1 cells implanted in BALB/c mouse assessed as reduction in tumor weight administered intravenously once every two days at equivalent dose of 10 mg/kg of HCPT for 14 days; format: functional, organism-based; conditions: route iv, time 14.0 day
[19] = Cmax in Sprague-Dawley rat assessed as fold change at 24 mg/kg, iv by HPLC-MS analysis relative to HCPT; format: ADME, organism-based; conditions: in vivo
[20] = Terminal elimination half life in Sprague-Dawley rat at 24 mg/kg, iv by HPLC-MS analysis; format: ADME, organism-based; conditions: in vivo, read-out: LambdaZ (converted)
[21] = system: 4T1; experiment: Antiproliferative activity against mouse 4T1 cells incubated for 48 hrs by CCK8 assay; format: functional, cell-based; conditions: 4T1, 48 h
[22] = system: 4T1; experiment: Anti-metastatic activity in mouse 4T1 cells assessed as wound closure at 0.5 uM incubated for 24 hrs by scratch-wound assay (reference value: 42 %); format: functional
[23] = Toxicity in BALB/c mouse implanted with mouse 4T1 cells assessed as animal death administered intravenously once every two days at equivalent dose of 10 mg/kg of HCPT for 14 days; format: organism-based; conditions: in vivo, iv, 336 h, time 14 day
[24] = Prodrug stability in 100 mM H2O2 assessed as compound remaining at 18 uM measured after 2 hrs by RP-HPLC analysis; format: ADME
[25] = system: MCF7; experiment: Antiproliferative activity against human MCF7 cells incubated for 48 hrs by CCK8 assay; format: functional, cell-based; conditions: MCF7, 48 h
[26] = system: 4T1; experiment: Induction of intracellular ROS generation in mouse 4T1 cells at 0.5 uM incubated for 24 hrs by DCFH-DA probe based CLSM analysis; format: functional, cell-based
[27] = Drug localization in mitochondria of mouse 4T1 cells at 20 uM measured after 2 hrs by CLSM analysis; format: ADME; conditions: 4t1, 2 h
[28] = Drug internalization in mouse 4T1 cells assessed as green fluorescence in cytoplasm at 20 uM measured after 8 hrs by CLSM analysis; format: ADME, cell-based; conditions: 4t1, 8 h
[29] = Drug localization in cytoplasm of mouse 4T1 cells at 20 uM measured after 2 hrs by CLSM analysis; format: ADME, subcellular; conditions: 4t1, 2 h
[30] = Drug internalization in mouse 4T1 cells assessed as green fluorescence in cytoplasm at 20 uM measured after 2 hrs by CLSM analysis; format: ADME, cell-based; conditions: 4t1, 2 h
[31] = Drug internalization in mouse 4T1 cells assessed as green fluorescence in cytoplasm at 20 uM measured after 1 hr by CLSM analysis; format: ADME, cell-based; conditions: 4t1, 1 h
[32] = Drug internalization in mouse 4T1 cells assessed as fold change in green fluorescence in cytoplasm at 20 uM measured after 8 hrs by flow cytometry relative to K-Nap; format: ADME, cell-based; conditions: 4t1, 8 h
[33] = Prodrug release in mouse 4T1 cells assessed as Nap release at 20 uM measured after 2 hrs by confocal microscopy; format: ADME, cell-based; conditions: 4t1, 2 h
[34] = Drug localization in mitochondria of mouse 4T1 cells at 20 uM measured after 2 hrs by flow cytometry; format: ADME; conditions: 4t1, 2 h
[35] = Prodrug stability in 5 uM to 5 mM GSH assessed as compound remaining at 20 uM measured for 24 hrs by RP-HPLC analysis; format: ADME
[36] = system: 4T1; experiment: Cytotoxicity against mouse 4T1 cells assessed as cell viability at 5 to 50 uM incubated for 24 hrs by CCK8 assay relative to control; format: functional; conditions: dose 5-50 µM
[37] = Drug internalization in mouse 4T1 cells assessed as fold change in green fluorescence in cytoplasm at 20 uM measured after 8 hrs by flow cytometry relative to TD-Nap; format: ADME, cell-based; conditions: 4t1, 8 h
[38] = Cytotoxicity against human MCF-10A cells assessed as cell viability at 5 to 50 uM incubated for 24 hrs by CCK8 assay relative to control; format: toxicity, cell-based; conditions: dose 5-50 µM, read-out: Activity
[39] = system: 4T1; experiment: Induction of intracellular ROS generation in mouse 4T1 cells assessed as fold increase in DCF fluorescence at 0.5 uM incubated for 24 hrs by DCFH-DA probe based CLSM analysis relative to control; format: functional
[40] = Prodrug release in human MCF7 cells assessed as Nap release at 20 uM measured after 2 hrs by confocal microscopy; format: ADME, cell-based; conditions: mcf7, 2 h
[41] = Prodrug release in human MDA-MB-231 cells assessed as Nap release at 20 uM measured after 2 hrs by confocal microscopy; format: ADME, cell-based; conditions: mda-mb-231, 2 h
[42] = Prodrug release in human MCF-10A cells assessed as Nap release at 20 uM measured after 2 hrs by confocal microscopy; format: ADME, cell-based
[43] = system: 4T1; experiment: Antitumor activity against mouse 4T1 cells implanted in BALB/c mouse assessed as tumor growth inhibition at 10 mg/kg, iv once every two days for 14 days; format: functional, organism-based; conditions: time 14.0 day
[44] = Cmax in Sprague-Dawley rat at 10 mg/kg, iv by HPLC-MS analysis; format: ADME, organism-based; conditions: in vivo
[45] = Toxicity in BALB/c mouse implanted with mouse 4T1 cells assessed as animal death at 10 mg/kg, iv once every two days measured for 9 to 10 days; format: organism-based; conditions: in vivo, time 9-10 day
[46] = AUC in Sprague-Dawley rat at 10 mg/kg, iv by HPLC-MS analysis; format: ADME, organism-based; conditions: in vivo

| Compound | IC50 at 48 h [1] [µM] | IC50 [4] [µM] | Activity [5] | inhibition [6] | Activity [7] | Activity [8] | IC50 [11] [µM] | IC50 [14] [µM] | IC50 [15] [µM] | IC50 [21] [µM] | Activity [22] [%] | Activity [23] | IC50 [25] [µM] | Activity [26] | Drug uptake [27] | Drug uptake [28] | Drug uptake [29] | Drug uptake [31] | also measured |
| --- | --- | --- | --- | --- | --- | --- | --- | --- | --- | --- | --- | --- | --- | --- | --- | --- | --- | --- | --- |
| CC[C@@]1(O)C(=O)OCc2c1cc1n(c2=O)Cc2cc3cc(OC(=O)CCCSC(C)(C)SCCCC(=O)OCC/C(SSCC(C)C)=C(\C)N(C)C=O)ccc3nc2-1 | 33.3 | 1.01 | Active; Most Potential Among Tested Compounds | Active; Most Pronounced Effect Observed Among Tested Compounds | Non-toxic | Non-toxic | 1.39 | 4.05 | 5.43 | 0.96 | 11 | Non-toxic | 1.02 |  |  |  |  |  | Activity [2]: Active; Stability [3]: < 12%; fold change (FC) [9]: 2; Activity [10]: Active; Exhibited Smallest Tumor Among Tested Compounds; Stability [12]: 84.8%; AUC [13]: 2720 ng·h/mL; Stability [16]: <= 10%; Cmax [17]: 7450 ng/mL; Activity [18]: Active; Lowest Tumor Weigth Observed Among Tested Compounds; fold change (FC) [19]: 4; half-life [20]: 3.24 h; Stability [24]: Unstable |
| CC[C@@]1(O)C(=O)OCc2c1cc1n(c2=O)Cc2cc3cc(OC(=O)CCC(=O)OCC/C(SSCC(C)C)=C(\C)N(C)C=O)ccc3nc2-1 | 10.5 | 5.32 | Active | Active; Moderate Effect Observed | Non-toxic | Non-toxic | 3.45 | 5.48 | 10.4 | 5.34 | ~25 | Non-toxic | 7.32 | inactive |  |  |  |  |  |
| CCCN1C(=O)c2cccc3c(OC(=O)CCCSC(C)(C)SCCCC(=O)OCC)ccc(c23)C1=O |  |  |  |  |  |  |  |  |  |  |  |  |  |  | Active | Active | Active | Active | Drug uptake [30]: Active |
| C/C(=C(\CCOC(=O)CCCSC(C)(C)SCCCC(=O)O)SSCC(C)C)N(C)C=O | > 100 | > 100 |  |  |  |  | > 100 | > 100 | > 100 | > 100 |  |  | > 100 |  |  |  |  |  |  |
| CCCN1C(=O)c2cccc3c(OC(=O)CCCSC(C)(C)SCCCC(=O)OCC/C(SSCC(C)C)=C(\C)N(C)C=O)ccc(c23)C1=O |  |  |  |  |  |  |  |  |  |  |  |  |  |  | Active | Active | Active | Active | fold change (FC) [32]: ~ 2; Drug metabolism [33]: metabolite_detected; Drug uptake [34]: Active; Stability [35]: Stable; Activity [36]: >90%; fold change (FC) [37]: ~ 2; viability at 24 h, 50 µM [38]: > 90%; fold change (FC) [39]: ~6.5; Drug metabolism [40]: metabolite_detected; Drug uptake [30]: Active; Drug metabolism [41]: metabolite_detected; Drug metabolism [42]: metabolite_notdetected |
| CCCN1C(=O)c2cccc3c(OC(=O)CCC(=O)OCC/C(SSCC(C)C)=C(\C)N(C)C=O)ccc(c23)C1=O |  |  |  |  |  |  |  |  |  |  |  |  |  |  | Active | Not_active | Active | Active |  |
| CCOC(=O)CCCSC(C)(C)SCCCC(=O)Oc1ccc2nc3c(cc2c1)Cn1c-3cc2c(c1=O)COC(=O)[C@]2(O)CC | 20.7 | 1.47 | Active | Active; Moderate Effect Observed | Non-toxic | Non-toxic | 1.93 | 6.24 | 7.02 | 3.78 | ~34 | Non-toxic | 4.21 | inactive |  |  |  |  |  |
| CC[C@@]1(O)C(=O)OCc2c1cc1n(c2=O)Cc2cc3cc(O)ccc3nc2-1 [HYDROXYCAMPTOTHECIN] | 3.17 | 0.95 | Active; Moderate Activity Observed |  |  |  | 1.46 | 2.43 | 3.12 | 1.71 | ~34 |  | 1.09 | Active; Moderate Elevations Observed |  |  |  |  | inhibition [43]: Active; Moderate Effect Observed; Cmax [44]: 1950 ng/mL; Activity [45]: Toxic; AUC [46]: 1020 ng·h/mL |
